Legend:
[1] = molecular target: T1, SHP2-PTP K366A/Q510A double mutant (Homo sapiens, UniProt Q06124, K366A/Q510A); test: BLI assay, SHP2-PTP K366A/Q510A double mutant; type: binding
T1 construct: Human SHP2 PTP domain (A237–I529) expression constructs; His-tag; made in house; host or cells: E. coli BL21 (DE3)
T1 sequence (Q06124 237-529 K366A/Q510A): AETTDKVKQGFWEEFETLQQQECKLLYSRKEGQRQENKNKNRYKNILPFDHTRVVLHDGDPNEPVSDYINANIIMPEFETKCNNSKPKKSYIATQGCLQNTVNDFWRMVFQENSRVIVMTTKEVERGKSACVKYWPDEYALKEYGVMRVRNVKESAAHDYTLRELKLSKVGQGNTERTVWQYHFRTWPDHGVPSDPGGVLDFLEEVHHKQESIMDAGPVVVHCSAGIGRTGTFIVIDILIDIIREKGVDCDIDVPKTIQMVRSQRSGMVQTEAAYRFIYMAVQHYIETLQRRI
Description: Human SHP2 PTP domain (A237–I529) expression constructs were engineered by cloning PTPN11 (NP_002825.3) into the pET30 plasmid with a His-tag to support further protein purification. The K366A/Q510A double mutation was introduced into the wild-type template using a site-directed mutagenesis kit (E0554S; New England Biolabs). The expression constructs were sequenced and transformed into BL21 (DE3)-competent cells. E. coli cells were grown at 37°C in an LB culture medium in the presence of […] kanamycin until the OD600 reached 1.0. The medium was then cooled to 18°C and 1 mM isopropyl ß-D-1-thiogalactopyranoside (IPTG) was added to induce protein expression overnight.
Cell pellets were collected and suspended in a buffer of 50 mM Tris-HCl (Ph = 8.5), 150 mM NaCl supplemented with 10% glycerol, and lysed by homogeniser (JN-BIO, China). […]
The BLI assay was performed using a FortéBio Octet 96 system. […] After equilibrium, the kinetics of the LIN and SHP2-PTP association were analysed by soaking the SSA sensors in a compound solution with various LIN concentrations for 300 s (6.25, 12.5, 25, 50, 100, and 200 μM), followed by 300 s of dissociation in the same HEPES buffer. The equilibrium constant (KD) values were assessed using the FortéBio data analysis software by fitting the kinetic data using a 1:1 binding model.

[2] = system: CCl4-induced liver fibrosis; test: CCl4-induced liver fibrosis mouse model: liver injury and fibrosis; type: in vivo, C57BL/6 mice; conditions: CCl4 mice
Description: C57BL/6 mice (20 ± 2 g) were obtained from Hangzhou Medical College Experimental Animal Center (Hangzhou, China). The animals were maintained under controlled temperature (22°C ± 1°C), humidity (50%), and light (12 h light/12 h dark). The animals were fed a standard laboratory diet and provided with free access to tap water. All animals received humane care according to institutional animal care guidelines approved by the Experimental Animal Ethical Committee of Hangzhou Medical College. Forty mice were randomly divided into six groups: (1) vehicle control (n = 7); (2) CCl4 model (n = 7); (3) CCl4 + LIN (20 mg/kg) (n = 7); (4) CCl4 + LIN (40 mg/kg) (n = 7); (5) LIN (40 mg/kg) (n = 7); and (6) CCl4 + silymarin (SIL) (200 mg/kg) (n = 5). LIN and SIL were dissolved in 0.5% CMC-Na solution. Mice were administered LIN or SIL (intragastric administration, i.g.) once per day and CCl4 (intraperitoneal injection, i.p.; mixed 1:3 in olive oil, 2 mL/kg) twice per week for 4 weeks. Mice in the vehicle control group received olive oil (i.p. twice a week, 4 weeks) and 0.5% CMC-Na (i.g. every day, 4 weeks). After treatment, the mice were sacrificed, and plasma and liver tissues were collected and further analysed.
Serum was collected from blood samples after centrifugation at 860 × g for 15 min. Serum ALT (Nanjing Jiancheng Bioengineering Institute, C010-2-1) and AST (Nanjing Jiancheng Bioengineering Institute, C009-2-1) activities were measured using kits, according to the manufacturer’s instructions. Liver hydroxyproline content was determined using the alkaline hydrolysis method, as described in the kits. Serum levels of laminin (LN) were measured using ELISA kits, according to the manufacturer’s instructions (Shanghai YANJIN Biological Technology Co., LTD, F12019).
Total RNA was extracted from liver tissues and LX-2 cells using the TRIzol reagent. cDNA was synthesised using a PrimeScript RT Master Mix kit. Real-time PCR was performed using SYBR Green premix according to the manufacturer’s instructions. Relative expression of target genes was normalised to actin, analysed by the delta-delta-CT method and given as a ratio compared with the vehicle control. Primer sequences used in this study are listed in Supplementary Material.
A sample of the liver was fixed in 10% phosphate-buffered saline (PBS)-formalin solution and embedded in paraffin. Samples were sectioned (5 μm) and stained with haematoxylin-eosin (H&E) for histological observation of liver injury and stained with Masson’s trichrome and Sirius red to observe collagen deposition in the liver.

[3] = LIN 20 and 40 mg/kg i.g. once per day, 4 weeks, p < 0.05
[4] = LIN 20 and 40 mg/kg, dose-dependent

BLI response value ([1]; 200 μM LIN): lower than 0.2 | effect of K366A/Q510A mutation on binding affinity between LIN and SHP2-PTP ([1]; BLI): significantly eliminated
Compound: C/C1=C\CCC2=C[C@@H](OC2=O)c2c(C)coc2C1 [LIN, linderalactone]
hepatic Col1a1 mRNA level ([2]; LIN 20 mg/kg): significantly reversed | hepatic Col3a1 mRNA level ([2]; LIN 20 mg/kg): significantly reversed | collagen deposition (Masson's trichrome, Sirius red) ([2]; LIN 40 mg/kg): mild collagen deposition in the liver without bridging fibrosis | serum ALT level [2, 3]: significantly reduced | serum AST level [2, 3]: significantly reduced | liver hydroxyproline level [2, 4]: decreased | serum laminin level [2, 4]: decreased | CCl4-induced liver damage (H&E: immune cell infiltration, swelling, necrosis of hepatocytes) ([2]; LIN treatment): ameliorated | extent of collagen deposition (Masson's trichrome, Sirius red) ([2]; LIN, dose-dependent): ameliorated
